Measured values: US12239627B2, “Method of treating conditions related to the PGI2 receptor” (Arena Pharmaceuticals, Inc., priority 2014, dated 2025)

Test: Phase 1 multiple ascending dose, dose titration study with healthy subjects (adverse events, tolerated dose)
Type: in vivo, human
Method: This study was a phase 1, randomized, double-blind, placebo-controlled, multiple-dose, dose titration study. A titration interval of 6 days was employed, with each dose being administered for at least 5 days. One goal was to determine the effect of dose titration on adverse effects.
In each of two subject cohorts, Cohort 1 and Cohort 2, subjects were treated at each dose level for duration of 5 days with exception of the last dose level which included 7 days of treatment.
The protocol was amended to provide for an additional cohort, Cohort 3, in order to evaluate a different dose escalation regimen, as disclosed below.
Cohorts 1 and 2: Two groups of 15 subjects were enrolled and randomized to receive placebo (5 subjects per Cohort) or a starting dose of 0.05 mg Compound 1 (10 subjects per Cohort) on Day I. Once daily (q.d.) dosing continued through 5 days. If tolerated, the next dose escalation (placebo or 0.1 mg q.d. Compound 1) occurred on Day 6 and this dose was administered daily through Day 10.
Subsequent dose escalations were to occur in the same manner every 6th day for up to 3 additional dose escalations if tolerated (placebo or 0.2, 0.3, and 0.4 mg Compound 1) with the final dose maintained for a duration of 7 days. The dose could be decreased (“de-escalated”) or increased (“re-escalated”) based on assessment of safety and tolerability.
Cohort 3: One group of 25 subjects (S placebo and 20 active) were enrolled and randomized to receive a starting dose of 0.01 mg Compound 1 twice daily or placebo on Day 1. Twice daily dosing continued through 5 days. If tolerated, the next dose escalation (placebo or Compound 1 0.02 mg twice daily) occurred on Day 6 and this dose was administered daily through Day 10. Subsequent dose escalations were to occur in the same manner every 6th day for up to 4 additional dose escalations if tolerated (placebo or 0.03, 0.04. 0.05, and 0.07 mg twice daily Compound 1). The dose could be decreased (“de-escalated”) or increased (“re-escalated”) based on assessment of safety and tolerability. The doses tested in this cohort were 0.01, 0.02, 0.03, 0.04, 0.05, and 0.07 mg administered twice daily for a total daily dose of 0.02, 0.04, 0.06, 0.08, 0.1, and 0.14 mg, respectively.
Compound 1 capsules were provided as 0.01 mg (all Cohorts) and 0.1 mg (Cohorts 1 and 2 only) strengths.

[1] = Cohort 3, twice daily, 0.07 mg (N = 4)
[2] = Cohort 3, twice daily, Total (all doses) (N = 20)
[3] = Cohorts 1 and 2, once daily, 0.03 mg (N = 4)
[4] = Cohorts 1 and 2, once daily, 0.05 mg (N = 20)
[5] = Cohorts 1 and 2, once daily, 0.1 mg (N = 16)
[6] = Cohorts 1 and 2, once daily, 0.2 mg (N = 5)
[7] = Cohorts 1 and 2, once daily, 0.3 mg (N = 1)
[8] = Cohorts 1 and 2, once daily, 0.4 mg (N = 1)
[9] = Cohorts 1 and 2, once daily, Total (all doses) (N = 20)
[10] = Cohorts 1 and 2, 0.05 mg once daily

For O=C(O)COC[C@H]1CC[C@H](COC(=O)N(c2ccccc2)c2ccc(Cl)cc2)CC1 [Compound 1, 2-(((1r,4r)-4-(((4-chlorophenyl)(phenyl)carbamoyloxy)methyl)cyclohexyl)methoxy)acetic acid], the “Adverse Events (no. of subjects) leading to Decrease of Dose: Priapism” value [1] was 0 subjects, the “Adverse Events (no. of subjects) leading to Decrease of Dose: Vomiting” value [1] was 0 subjects and the “Adverse Events (no. of subjects) leading to Decrease of Dose: Abdominal pain” value [2] was 2 subjects. The “Adverse Events (no. of subjects) leading to Decrease of Dose: Arthralgia” value [2] was 2 subjects, the “Adverse Events (no. of subjects) leading to Decrease of Dose: Chest discomfort” value [2] was 1 subjects and the “Adverse Events (no. of subjects) leading to Decrease of Dose: Chest pain” value [2] was 1 subjects. The “Adverse Events (no. of subjects) leading to Decrease of Dose: Diarrhoea” value [2] was 2 subjects, the “Adverse Events (no. of subjects) leading to Decrease of Dose: Dizziness” value [2] was 3 subjects and the “Adverse Events (no. of subjects) leading to Decrease of Dose: Headache” value [2] was 10 subjects. For the same compound, the “Adverse Events (no. of subjects) leading to Decrease of Dose: Jaw pain” value [2] was 1 subjects, the “Adverse Events (no. of subjects) leading to Decrease of Dose: Myalgia” value [2] was 4 subjects and the “Adverse Events (no. of subjects) leading to Decrease of Dose: Nausea” value [2] was 5 subjects. The “Adverse Events (no. of subjects) leading to Decrease of Dose: Palpitations” value [2] was 1 subjects, the “Adverse Events (no. of subjects) leading to Decrease of Dose: Priapism” value [2] was 1 subjects and the “Adverse Events (no. of subjects) leading to Decrease of Dose: Vomiting” value [2] was 1 subjects. For the same compound, the “Tolerability of the starting dose” value (Cohort 3, 0.01 mg twice daily) was “all of the subjects were able to tolerate”, the “Tolerability of the first escalation” value (Cohort 3, 0.02 mg twice daily) was “all of the subjects were able to tolerate” and the “Subjects who completed the study at the dose” value (Cohort 3, 0.03 mg twice daily) was “Five”. The “Subjects able to escalate to the dose level through study completion” value (Cohort 3, 0.04 mg twice daily) was “Two”, the “Subjects able to escalate to the dose level through study completion” value (Cohort 3, 0.05 mg) was “Five” and the “Tolerability of the dose” value (Cohort 3, 0.07 mg twice daily) was “tolerated through study completion”. For the same compound, the “Subjects able to escalate to the dose” value (Cohort 3, 0.07 mg twice daily, highest dose level) was “Two”, the “Subjects who discontinued treatment due to an adverse event” value (Cohort 3, Day 20) was “One” and the “Subjects who received 0.03 mg as highest dose for at least 3 days” value (Cohorts 1 and 2) was 0.03 mg-17 subjects. For the same compound, the “Subjects who received 0.1 mg as highest dose for at least 3 days” value (Cohorts 1 and 2) was 0.1 mg-8 subjects, the “Subjects who received 0.2 mg as highest dose for at least 3 days” value (Cohorts 1 and 2) was 0.2 mg-1 subjects and the “Subjects who received 0.30 mg as highest dose for at least 3 days” value (Cohorts 1 and 2) was 0.30 mg-1 subject. For the same compound, the “Subjects with Final Compound 1 Total Daily Dose of 0.03 mg” value (Cohorts 1 and 2) was 0.03 mg-3 subjects, the “Subjects with Final Compound 1 Total Daily Dose of 0.05 mg” value (Cohorts 1 and 2) was 0.05 mg-9 subjects and the “Subjects with Final Compound 1 Total Daily Dose of 0.10 mg” value (Cohorts 1 and 2) was 0.10 mg-7 subjects. The “Subjects with Final Compound 1 Total Daily Dose of 0.30 mg” value (Cohorts 1 and 2) was 0.30 mg-1 subject, the “Adverse Events (no. of subjects) leading to Decrease of Dose: Chest pain” value [3] was 0 subjects and the “Adverse Events (no. of subjects) leading to Decrease of Dose: Diarrhoea” value [3] was 0 subjects. For the same compound, the “Adverse Events (no. of subjects) leading to Decrease of Dose: Erythema” value [3] was 0 subjects, the “Adverse Events (no. of subjects) leading to Decrease of Dose: Headache” value [3] was 0 subjects and the “Adverse Events (no. of subjects) leading to Decrease of Dose: Jaw pain” value [3] was 0 subjects. For the same compound, the “Adverse Events (no. of subjects) leading to Decrease of Dose: Nausea” value [3] was 0 subjects, the “Adverse Events (no. of subjects) leading to Decrease of Dose: Vomiting” value [3] was 0 subjects and the “Adverse Events (no. of subjects) leading to Decrease of Dose: Chest pain” value [4] was 0 subjects. The “Adverse Events (no. of subjects) leading to Decrease of Dose: Diarrhoea” value [4] was 1 subjects, the “Adverse Events (no. of subjects) leading to Decrease of Dose: Erythema” value [4] was 0 subjects and the “Adverse Events (no. of subjects) leading to Decrease of Dose: Headache” value [4] was 2 subjects. For the same compound, the “Adverse Events (no. of subjects) leading to Decrease of Dose: Jaw pain” value [4] was 0 subjects, the “Adverse Events (no. of subjects) leading to Decrease of Dose: Nausea” value [4] was 1 subjects and the “Adverse Events (no. of subjects) leading to Decrease of Dose: Vomiting” value [4] was 4 subjects. For the same compound, the “Adverse Events (no. of subjects) leading to Decrease of Dose: Chest pain” value [5] was 1 subjects, the “Adverse Events (no. of subjects) leading to Decrease of Dose: Diarrhoea” value [5] was 0 subjects and the “Adverse Events (no. of subjects) leading to Decrease of Dose: Erythema” value [5] was 0 subjects. The “Adverse Events (no. of subjects) leading to Decrease of Dose: Headache” value [5] was 5 subjects, the “Adverse Events (no. of subjects) leading to Decrease of Dose: Jaw pain” value [5] was 1 subjects and the “Adverse Events (no. of subjects) leading to Decrease of Dose: Nausea” value [5] was 1 subjects. For the same compound, the “Adverse Events (no. of subjects) leading to Decrease of Dose: Vomiting” value [5] was 2 subjects, the “Adverse Events (no. of subjects) leading to Decrease of Dose: Chest pain” value [6] was 0 subjects and the “Adverse Events (no. of subjects) leading to Decrease of Dose: Diarrhoea” value [6] was 0 subjects. The “Adverse Events (no. of subjects) leading to Decrease of Dose: Erythema” value [6] was 0 subjects, the “Adverse Events (no. of subjects) leading to Decrease of Dose: Headache” value [6] was 1 subjects and the “Adverse Events (no. of subjects) leading to Decrease of Dose: Jaw pain” value [6] was 0 subjects. For the same compound, the “Adverse Events (no. of subjects) leading to Decrease of Dose: Nausea” value [6] was 2 subjects, the “Adverse Events (no. of subjects) leading to Decrease of Dose: Vomiting” value [6] was 2 subjects and the “Adverse Events (no. of subjects) leading to Decrease of Dose: Chest pain” value [7] was 0 subjects. The “Adverse Events (no. of subjects) leading to Decrease of Dose: Diarrhoea” value [7] was 0 subjects, the “Adverse Events (no. of subjects) leading to Decrease of Dose: Erythema” value [7] was 0 subjects and the “Adverse Events (no. of subjects) leading to Decrease of Dose: Headache” value [7] was 0 subjects. The “Adverse Events (no. of subjects) leading to Decrease of Dose: Jaw pain” value [7] was 0 subjects, the “Adverse Events (no. of subjects) leading to Decrease of Dose: Nausea” value [7] was 0 subjects and the “Adverse Events (no. of subjects) leading to Decrease of Dose: Vomiting” value [7] was 0 subjects. For the same compound, the “Adverse Events (no. of subjects) leading to Decrease of Dose: Chest pain” value [8] was 0 subjects, the “Adverse Events (no. of subjects) leading to Decrease of Dose: Diarrhoea” value [8] was 0 subjects and the “Adverse Events (no. of subjects) leading to Decrease of Dose: Erythema” value [8] was 1 subjects. The “Adverse Events (no. of subjects) leading to Decrease of Dose: Headache” value [8] was 0 subjects, the “Adverse Events (no. of subjects) leading to Decrease of Dose: Jaw pain” value [8] was 0 subjects and the “Adverse Events (no. of subjects) leading to Decrease of Dose: Nausea” value [8] was 0 subjects. For the same compound, the “Adverse Events (no. of subjects) leading to Decrease of Dose: Vomiting” value [8] was 0 subjects, the “Adverse Events (no. of subjects) leading to Decrease of Dose: Chest pain” value [9] was 1 subjects and the “Adverse Events (no. of subjects) leading to Decrease of Dose: Diarrhoea” value [9] was 1 subjects. For the same compound, the “Adverse Events (no. of subjects) leading to Decrease of Dose: Erythema” value [9] was 1 subjects, the “Adverse Events (no. of subjects) leading to Decrease of Dose: Headache” value [9] was 8 subjects and the “Adverse Events (no. of subjects) leading to Decrease of Dose: Jaw pain” value [9] was 1 subjects. The “Adverse Events (no. of subjects) leading to Decrease of Dose: Nausea” value [9] was 4 subjects, the “Adverse Events (no. of subjects) leading to Decrease of Dose: Vomiting” value [9] was 8 subjects and the “Subjects unable to tolerate the starting dose (number)” value [10] was “three”. The “Subjects unable to tolerate the starting dose (percent)” value [10] was 15%, the “Subjects who tolerated the dose” value (Cohorts 1 and 2, 0.2 mg once daily) was “One” and the “Tolerability of the dose” value (Cohorts 1 and 2, 0.4 mg once daily, highest dose administered (one subject)) was “not tolerated”. For the same compound, the Subjects who withdrew (Cohorts 1 and 2, Day 1) was “One”, the “AEs considered moderate in intensity” value (within the Compound 1 group) was 95% and the “AEs deemed by the investigator to be probably related to study drug” value (within the Compound 1 group) was 90%.
